From US6555529B1, “Remedies for intramedullary diseases” (Toray Industries, Inc., priority 1997, dated 2003)
Marks after values point to notes of the source that are not given here.

Experiments:
[1] = system: B-cell-type acute lymphoblastic leukaemia cell strain CCRF-SB; assay: Suppression of CCRF-SB cell proliferation (MTT assay); type: cell-based; set-up: unit of the concentration uncertain; settings: 120 hours culture, mean ± SE
Experimental: (§1) Acute promyelocytic leukaemia cell strain KG-1, T-cell type acute lymphoblastic leukaemia cell strain RPMI-8402, B-cell-type acute lymphoblastic leukaemia cell strain CCRF-SB, chronic myelocytic leukaemia cell strain K562 and myeloblastoma cell strain ML-2 were prepared at concentrations of 2×10^4 or 4×10^4 cells per ml of culture medium. In each case, 0.05 ml quantities were added per well of a 96 well culture plate and culturing carried out at a carbon dioxide concentration of 5% for 24 hours at 37° C. Furthermore, 0.05 ml quantities of culture medium to which Compound 1 had been added were added to the aforesaid culture plate, and culturing carried out under the same conditions for 120 hours. The number of cells when the culturing was completed was calculated by the MTT calorimetric assay and the percentage suppression of tumour cell proliferation in terms of a control group to which no compound had been added was determined.
(§2) As well as Compound 1, there were used as test compounds 1-hydroxyethane-1,1-bisphosphonic acid disodium salt (Compound 6) and (4-chlorophenylthio)methane-1,1-bisphosphonic acid disodium salt (Compound 7). The results are shown in Table 2 as mean values±standard errors.
(§3) Using Dunett multiple comparison method (parametric), the results were assigned the symbol * when significant at a level of significance of p<0.05, and the symbol *** when significant at a level of significance of p<0.001, compared to the control group.

[2] = system: acute promyelocytic leukaemia cell strain KG-1; assay: Suppression of KG-1 cell proliferation (MTT assay); type: cell-based; set-up: unit of the concentration uncertain; settings: 120 hours culture, mean ± SE
Experimental: as §1, §2, §3

tumour cells = assay: Suppression of leukaemia cell and myeloma cell proliferation (summary over all cell strains); type: cell-based; settings: summary of Table 2
Experimental: as §1
As well as Compound 1, there were used as test compounds 1-hydroxyethane-1,1-bisphosphonic acid disodium salt (Compound 6) and (4-chlorophenylthio)methane-1,1-bisphosphonic acid disodium salt (Compound 7). The results are shown in Table 2 as mean values±standard errors. […]

[3] = system: chronic myelocytic leukaemia cell strain K562; assay: Suppression of K562 cell proliferation (MTT assay); type: cell-based; set-up: unit of the concentration uncertain; settings: 120 hours culture, mean ± SE
Experimental: as §1, §2, §3

[4] = system: myeloblastoma cell strain ML-2; assay: Suppression of ML-2 cell proliferation (MTT assay); type: cell-based; set-up: unit of the concentration uncertain; settings: 120 hours culture, mean ± SE
Experimental: as §1, §2, §3

[5] = system: T-cell type acute lymphoblastic leukaemia cell strain RPMI-8402; assay: Suppression of RPMI-8402 cell proliferation (MTT assay); type: cell-based; settings: 120 hours culture, mean ± SE
Experimental: as §1, §2, §3

[6] = system: osteomyelitis accompanying adjuvant arthritis (neutrophil infiltration into joints); assay: Suppression of osteomyelitis accompanying rat adjuvant arthritis; type: in vivo; settings: for Osteomyelitis score for the intertarsal and tarsometatarsal joints / Osteomyelitis score for the talocrural joint region: Lewis rats, scored day 22, grades 0-3, mean ± SE; for osteomyelitis suppressing effect (in words): rat adjuvant arthritis, summary of Table 1
Experimental: 0.1 mg of inactivated dried Mycobacterium butyricum was suspended in 0.1 ml of liquid paraffin, and this was injected into the left hind foot pad of 8-week old female Lewis rats. […] As a control group, the subcutaneous administration of sterile distilled water was carried out. One day after the completion of the administration (day 22) the rats were sacrificed, the skin and muscle removed from the right hind limb and, following decalcification, pathological specimens were prepared. […] Furthermore, Diclofenac (Compound 4) and Indomethacin (Compound 5) were used as existing anti-inflammatory drugs. The results obtained are shown in Table 1 as mean values±standard errors. Using the […] multiple comparison method (parametric), the results were assigned the symbol * when significant at a level of significance of p<0.05, and the symbol ** when significant at a level of significance of p<0.01, compared to the control group in which only sterile distilled water was used.

Compound | Percentage suppression of CCRF-SB cell proliferation ([1]; 1 (unit uncertain)) | Percentage suppression of CCRF-SB cell proliferation ([1]; 10 (unit uncertain)) | Percentage suppression of CCRF-SB cell proliferation ([1]; 100 (unit uncertain)) | Percentage suppression of KG-1 cell proliferation ([2]; 1 (unit uncertain)) | Percentage suppression of KG-1 cell proliferation ([2]; 10 (unit uncertain)) | Percentage suppression of KG-1 cell proliferation ([2]; 100 (unit uncertain)) | proliferation of tumour cells (in words) (tumour cells) | Percentage suppression of K562 cell proliferation ([3]; 1 (unit uncertain)) | Percentage suppression of K562 cell proliferation ([3]; 10 (unit uncertain)) | Percentage suppression of K562 cell proliferation ([3]; 100 (unit uncertain)) | Percentage suppression of ML-2 cell proliferation ([4]; 1 (unit uncertain)) | Percentage suppression of ML-2 cell proliferation ([4]; 10 (unit uncertain)) | Percentage suppression of ML-2 cell proliferation ([4]; 100 (unit uncertain)) | Percentage suppression of RPMI8402 cell proliferation ([5]; 1 mM) | Percentage suppression of RPMI8402 cell proliferation ([5]; 10 mM) | Percentage suppression of RPMI8402 cell proliferation ([5]; 100 mM) | osteomyelitis suppressing effect (in words) [6] | further results
CC(O)(P(=O)([O-])[O-])P(=O)(O)O.[Na+].[Na+] [Compound 6, 1-hydroxyethane-1,1-bisphosphonic acid disodium salt] | 42.1 ± 0.9*** % | 2.2 ± 0.8% | 0.4 ± 1.2% | 40.7 ± 1.7*** % | 1.6 ± 2.1% | 2.9 ± 2.4% | suppressed | 44.4 ± 1.3*** % | −2.5 ± 0.3% | 3.2 ± 0.6% | 147.2 ± 20.4*** % | −20.6 ± 17.2% | 16.0 ± 17.2% | 28.2 ± 2.0*** % | −3.4 ± 1.3% | 2.9 ± 1.5% | – | –
O=P([O-])([O-])C(Sc1ccc(Cl)cc1)P(=O)(O)O.[Na+].[Na+] [Compound 7, (4-chlorophenylthio)methane-1,1-bisphosphonic acid disodium salt] | 61.3 ± 1.1*** % | 0.1 ± 1.9% | 3.5 ± 2.2% | 97.1 ± 0.6*** % | −1.1 ± 1.1% | 2.2 ± 1.6% | suppressed | 97.8 ± 0.3*** % | −1.0 ± 1.3% | −3.1 ± 0.5% | 130.4 ± 11.2*** % | 7.3 ± 7.3% | 42.8 ± 10.1* % | 87.2 ± 0.6*** % | −2.5 ± 2.0% | 7.4 ± 6.3% | – | –
O=P(O)(O)C(O)(Cc1cccnc1)P(=O)(O)O [Compound 3, 2-(3-pyridyl)-1-hydroxyethane-1,1-bisphosphonic acid] | – | – | – | – | – | – | – | – | – | – | – | – | – | – | – | – | suppressed | Osteomyelitis score for the intertarsal and tarsometatarsal joints ([6]; 0.31 mg/kg, Table 1-3): 0.0 ± 0.0**; Osteomyelitis score for the talocrural joint region ([6]; 0.31 mg/kg, Table 1-3): 0.0 ± 0.0**
NCCCC(O)(P(=O)(O)O)P(=O)(O)O [Compound 2, 4-amino-1-hydroxybutane-1,1-bisphosphonic acid] | – | – | – | – | – | – | – | – | – | – | – | – | – | – | – | – | suppressed | Osteomyelitis score for the intertarsal and tarsometatarsal joints ([6]; 0.31 mg/kg, Table 1-2): 0.2 ± 0.17**; Osteomyelitis score for the talocrural joint region ([6]; 0.31 mg/kg, Table 1-2): 0.0 ± 0.0**
O=C(O)Cc1ccccc1Nc1c(Cl)cccc1Cl [Compound 4, Diclofenac, reference compound] | – | – | – | – | – | – | – | – | – | – | – | – | – | – | – | – | weak | Osteomyelitis score for the intertarsal and tarsometatarsal joints ([6]; 0.1 mg/kg, Table 1-4): 1.8 ± 0.2; Osteomyelitis score for the talocrural joint region ([6]; 0.1 mg/kg, Table 1-4): 1.2 ± 0.3
COc1ccc2c(c1)c(CC(=O)O)c(C)n2C(=O)c1ccc(Cl)cc1 [Compound 5, Indomethacin, reference compound] | – | – | – | – | – | – | – | – | – | – | – | – | – | – | – | – | weak | Osteomyelitis score for the intertarsal and tarsometatarsal joints ([6]; 0.1 mg/kg, Table 1-5): 2.5 ± 0.2; Osteomyelitis score for the talocrural joint region ([6]; 0.1 mg/kg, Table 1-5): 1.8 ± 0.4
